ChEMBL document CHEMBL1828532, “Synthesis and antitubercular evaluation of novel dibenzo[b,d]furan and 9-methyl-9H-carbazole derived hexahydro-2H-pyrano[3,2-c]quinolines via Povarov reaction” (Eur J Med Chem, 2011)
Values after ≈ are worked out from the molar mass of the structure shown.

Key:
[1] = tested on: Mycobacterium tuberculosis; test: microbe, parasite or virus in culture; conditions: H37Rv, 672 h
Description: Antimycobacterial activity against Mycobacterium tuberculosis H37Rv after 28 days by agar dilution method

[2] = Lipophilicity, log P of the compound; type: physicochemical; conditions: octanol/water

Row | Compound | MIC [1] [µg/mL] | logP [2]
1 | Cc1ccc2c(c1)[C@@H]1OCCC[C@@H]1[C@H](c1ccc3oc4ccccc4c3c1)N2 | 12.5 (≈ 33.8 µM) | 4.42
2 | Cn1c2ccccc2c2cc([C@H]3Nc4ccc(F)cc4[C@@H]4OCCC[C@H]34)ccc21 | 3.13 (≈ 8.1 µM) | 4.25
3 | Cn1c2ccccc2c2cc([C@H]3Nc4ccccc4[C@@H]4OCCC[C@H]34)ccc21 (relative stereo) | 12.5 (≈ 33.9 µM) | 4.1
4 | c1ccc2c(c1)N[C@@H](c1ccc3oc4ccccc4c3c1)[C@H]1CCCO[C@@H]21 (relative stereo) | 25 (≈ 70.3 µM) | 3.92
5 | c1ccc2c(c1)N[C@H](c1ccc3oc4ccccc4c3c1)[C@H]1CCCO[C@@H]21 (relative stereo) | 25 (≈ 70.3 µM) | 3.92
6 | Cc1ccc2c(c1)[C@@H]1OCCC[C@@H]1[C@@H](c1ccc3oc4ccccc4c3c1)N2 (relative stereo) | 12.5 (≈ 33.8 µM) | 4.42
7 | COc1ccc2c(c1)[C@@H]1OCCC[C@@H]1[C@H](c1ccc3oc4ccccc4c3c1)N2 (relative stereo) | 12.5 (≈ 32.4 µM) | 3.81
8 | COc1ccc2c(c1)[C@@H]1OCCC[C@@H]1[C@@H](c1ccc3oc4ccccc4c3c1)N2 (relative stereo) | 12.5 (≈ 32.4 µM) | 3.81
9 | Clc1ccc2c(c1)[C@@H]1OCCC[C@@H]1[C@H](c1ccc3oc4ccccc4c3c1)N2 (relative stereo) | 25 (≈ 64.1 µM) | 4.49
10 | Clc1ccc2c(c1)[C@@H]1OCCC[C@@H]1[C@@H](c1ccc3oc4ccccc4c3c1)N2 (relative stereo) | 6.25 (≈ 16 µM) | 4.49
11 | Brc1ccc2c(c1)[C@@H]1OCCC[C@@H]1[C@H](c1ccc3oc4ccccc4c3c1)N2 (relative stereo) | 12.5 (≈ 28.8 µM) | 4.76
12 | Brc1ccc2c(c1)[C@@H]1OCCC[C@@H]1[C@@H](c1ccc3oc4ccccc4c3c1)N2 (relative stereo) | 6.25 (≈ 14.4 µM) | 4.76
13 | Fc1ccc2c(c1)[C@@H]1OCCC[C@@H]1[C@H](c1ccc3oc4ccccc4c3c1)N2 (relative stereo) | 3.13 (≈ 8.38 µM) | 4.09
14 | Fc1ccc2c(c1)[C@@H]1OCCC[C@@H]1[C@@H](c1ccc3oc4ccccc4c3c1)N2 (relative stereo) | 3.13 (≈ 8.38 µM) | 4.09
15 | Cn1c2ccccc2c2cc([C@@H]3Nc4ccccc4[C@@H]4OCCC[C@H]34)ccc21 (relative stereo) | 25 (≈ 67.8 µM) | 4.1
16 | Cc1ccc2c(c1)[C@@H]1OCCC[C@@H]1[C@H](c1ccc3c(c1)c1ccccc1n3C)N2 (relative stereo) | 25 (≈ 65.4 µM) | 4.58
17 | Cc1ccc2c(c1)[C@@H]1OCCC[C@@H]1[C@@H](c1ccc3c(c1)c1ccccc1n3C)N2 (relative stereo) | 25 (≈ 65.4 µM) | 4.58
18 | COc1ccc2c(c1)[C@@H]1OCCC[C@@H]1[C@@H](c1ccc3c(c1)c1ccccc1n3C)N2 (relative stereo) | 25 (≈ 62.7 µM) | 3.97
19 | Cn1c2ccccc2c2cc([C@@H]3Nc4ccc(Cl)cc4[C@@H]4OCCC[C@H]34)ccc21 (relative stereo) | 12.5 (≈ 31 µM) | 4.65
20 | Cn1c2ccccc2c2cc([C@H]3Nc4ccc(Cl)cc4[C@@H]4OCCC[C@H]34)ccc21 (relative stereo) | 6.25 (≈ 15.5 µM) | 4.65
21 | Cn1c2ccccc2c2cc([C@@H]3Nc4ccc(Br)cc4[C@@H]4OCCC[C@H]34)ccc21 (relative stereo) | 25 (≈ 55.9 µM) | 4.93
22 | Cn1c2ccccc2c2cc([C@H]3Nc4ccc(Br)cc4[C@@H]4OCCC[C@H]34)ccc21 (relative stereo) | 6.25 (≈ 14 µM) | 4.93
23 | Cn1c2ccccc2c2cc([C@@H]3Nc4ccc(F)cc4[C@@H]4OCCC[C@H]34)ccc21 (relative stereo) | 6.25 (≈ 16.2 µM) | 4.25
24 | CC[C@@H](CO)NCCN[C@@H](CC)CO [ETHAMBUTOL] | 3.13 (≈ 15.3 µM) | 
25 | NNC(=O)c1ccncc1 [ISONIAZID] | 0.1 (≈ 0.729 µM) | 
26 | CO[C@H]1/C=C/O[C@@]2(C)Oc3c(C)c(O)c4c(O)c(c(/C=N/N5CCN(C)CC5)c(O)c4c3C2=O)NC(=O)/C(C)=C\C=C\[C@H](C)[C@H](O)[C@@H](C)[C@@H](O)[C@@H](C)[C@H](OC(C)=O)[C@@H]1C [RIFAMPIN] | 0.2 (≈ 0.243 µM) | 
